How the values were obtained:
[1] = 101.33 kPa, Liquid, Vibrating tube method
[2] = refractive index (Na D-line) (dimensionless); settings: 101.33 kPa, Liquid, Standard Abbe refractometry

CCCCn1cc[n+](C)c1.F[P-](F)(F)(F)(F)F [1-butyl-3-methylimidazolium hexafluorophosphate]
Settings	mass density, [1] [kg/m3]	refractive index, [2]
298.2 K	1363.9	1.4095
299.2 K	1363.2	1.4093
300.2 K	1362.4	1.4091
301.2 K	1361.6	1.4089
302.2 K	1360.8	1.4087
303.2 K	1360.1	1.4085
304.2 K	1359.3	1.4083
305.2 K	1358.5	1.4081
306.2 K	1357.8	1.4079
307.2 K	1357	1.4077
308.2 K	1356.2	1.4075
313.2 K	1352.8	–
318.2 K	1348.8	–
323.2 K	1344.9	–
333.2 K	1336.9	–
343.2 K	1329	–
353.2 K	1321.1	–

CCCCn1cc[n+](C)c1.COS(=O)(=O)[O-] [1-butyl-3-methylimidazolium methyl sulfate]
Settings	mass density, [1] [kg/m3]	refractive index, [2]
298.2 K	1205.7	1.4792
299.2 K	1205	1.4789
300.2 K	1204.4	1.4787
301.2 K	1203.8	1.4784
302.2 K	1203.1	1.4782
303.2 K	1202.5	1.4779
304.2 K	1201.9	1.4776
305.2 K	1201.2	1.4774
306.2 K	1200.6	1.4771
307.2 K	1199.9	1.4768
308.2 K	1199.3	1.4766
313.2 K	1196.2	–
318.2 K	1193	–
323.2 K	1189.9	–
333.2 K	1183.5	–
343.2 K	1177	–
353.2 K	1170.6	–

CCCCn1cc[n+](C)c1.F[B-](F)(F)F [1-butyl-3-methylimidazolium tetrafluoroborate]
Settings	mass density, [1] [kg/m3]	refractive index, [2]
298.2 K	1201	1.4218
299.2 K	1200.3	1.4216
300.2 K	1199.6	1.4213
301.2 K	1199	1.4211
302.2 K	1198.3	1.4208
303.2 K	1197.6	1.4206
304.2 K	1196.9	1.4204
305.2 K	1196.2	1.4201
306.2 K	1195.6	1.4199
307.2 K	1194.9	1.4197
308.2 K	1194.2	1.4195
313.2 K	1190.8	–
318.2 K	1187.4	–
323.2 K	1184	–
333.2 K	1177.2	–
343.2 K	1170.4	–
353.2 K	1163.6	–

CCCCn1cc[n+](C)c1.O=S(=O)([O-])C(F)(F)F [1-butyl-3-methylimidazolium trifluoromethanesulfonate]
Settings	mass density, [1] [kg/m3]	refractive index, [2]
298.2 K	1303.8	1.4368
299.2 K	1303	1.4366
300.2 K	1302.3	1.4364
301.2 K	1301.5	1.4362
302.2 K	1300.8	1.436
303.2 K	1300	1.4357
304.2 K	1299.2	1.4355
305.2 K	1298.5	1.4352
306.2 K	1297.7	1.435
307.2 K	1297	1.4348
308.2 K	1296.2	1.4346
313.2 K	1292.4	–
318.2 K	1288.6	–
323.2 K	1284.7	–
333.2 K	1277.1	–
343.2 K	1269.5	–
353.2 K	1261.9	–
